Tests used:
[1] = biological target: Neuronal acetylcholine receptor subunit alpha-7 (Homo sapiens, UniProt P36544); assay: Activity at human alpha7 nACh receptor expressed in Xenopus oocytes assessed as inhibition of acetyl chlone-induced currents by two-electrode voltage clamp method; type: cell-based, Oocyte
[2] = biological target: T1, Neuronal acetylcholine receptor; alpha4/beta2 (Homo sapiens, UniProt P17787+P43681); assay: Activity at human alpha-4-beta-2 nACh receptor expressed in Xenopus oocytes assessed as inhibition of acetyl chlone-induced currents by two-electrode voltage clamp method; type: cell-based, Oocyte
T1 sequence (P17787 whole entry): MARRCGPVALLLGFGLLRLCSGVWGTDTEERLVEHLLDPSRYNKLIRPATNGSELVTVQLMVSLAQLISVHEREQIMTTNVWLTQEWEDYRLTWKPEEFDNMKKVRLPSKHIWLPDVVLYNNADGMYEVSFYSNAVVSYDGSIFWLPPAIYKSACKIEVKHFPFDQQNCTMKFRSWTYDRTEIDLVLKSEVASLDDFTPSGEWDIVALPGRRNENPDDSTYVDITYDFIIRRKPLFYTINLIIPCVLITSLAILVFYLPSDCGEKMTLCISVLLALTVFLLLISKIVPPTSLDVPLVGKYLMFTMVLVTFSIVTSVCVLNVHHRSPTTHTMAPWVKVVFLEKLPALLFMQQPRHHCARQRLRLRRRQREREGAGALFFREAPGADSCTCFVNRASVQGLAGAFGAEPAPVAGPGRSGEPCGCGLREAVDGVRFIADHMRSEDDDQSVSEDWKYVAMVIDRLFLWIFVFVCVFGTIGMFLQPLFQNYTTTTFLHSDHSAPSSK
T1 sequence (P43681 whole entry): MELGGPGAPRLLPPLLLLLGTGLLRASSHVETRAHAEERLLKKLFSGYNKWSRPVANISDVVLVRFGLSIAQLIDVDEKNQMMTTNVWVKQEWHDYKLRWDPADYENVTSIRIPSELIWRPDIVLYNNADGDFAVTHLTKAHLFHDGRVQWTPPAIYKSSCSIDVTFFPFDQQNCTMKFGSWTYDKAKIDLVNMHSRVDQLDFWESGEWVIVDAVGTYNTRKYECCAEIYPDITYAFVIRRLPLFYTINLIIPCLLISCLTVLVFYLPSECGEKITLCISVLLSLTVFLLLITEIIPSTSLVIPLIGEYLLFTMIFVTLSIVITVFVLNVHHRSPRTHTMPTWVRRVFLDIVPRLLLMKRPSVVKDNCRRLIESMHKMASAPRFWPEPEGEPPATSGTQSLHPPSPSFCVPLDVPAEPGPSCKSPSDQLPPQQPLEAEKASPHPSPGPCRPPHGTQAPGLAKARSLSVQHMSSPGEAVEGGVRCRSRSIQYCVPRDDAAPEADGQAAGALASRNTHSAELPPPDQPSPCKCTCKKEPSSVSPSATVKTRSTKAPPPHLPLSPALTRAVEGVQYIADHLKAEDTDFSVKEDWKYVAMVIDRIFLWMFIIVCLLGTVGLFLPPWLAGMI

[3] = biological target: T1, Neuronal acetylcholine receptor; alpha4/beta2; assay: Activity at human alpha-4-beta-2 nACh receptor expressed in Xenopus oocytes assessed as potentiation of acetyl chlone-induced currents by two-electrode voltage clamp method relative to control; type: cell-based; conditions: Oocyte

Chain of Neuronal acetylcholine receptor subunit alpha-7 (P36544 whole entry): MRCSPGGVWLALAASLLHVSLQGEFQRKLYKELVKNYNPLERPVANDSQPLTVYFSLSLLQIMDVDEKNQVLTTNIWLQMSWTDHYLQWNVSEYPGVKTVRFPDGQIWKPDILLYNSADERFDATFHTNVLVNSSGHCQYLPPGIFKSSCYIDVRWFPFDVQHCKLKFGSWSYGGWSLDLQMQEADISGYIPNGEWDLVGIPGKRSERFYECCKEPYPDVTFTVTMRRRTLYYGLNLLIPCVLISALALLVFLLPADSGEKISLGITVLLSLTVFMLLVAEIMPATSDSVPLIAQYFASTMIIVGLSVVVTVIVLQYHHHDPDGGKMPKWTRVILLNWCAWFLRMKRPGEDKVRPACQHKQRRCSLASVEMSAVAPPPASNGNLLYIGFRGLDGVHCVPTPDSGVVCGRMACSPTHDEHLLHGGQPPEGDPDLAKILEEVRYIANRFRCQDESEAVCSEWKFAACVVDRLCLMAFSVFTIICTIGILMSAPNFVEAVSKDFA

Q: Which IC50 [1] does the source give for `CNCCc1cn(CC=C(C)C)c2cc(Br)ccc12` [DEFORMYLFLUSTRABROMINE B] here?
A: Its IC50 is 209 µM.

Q: With `C=CC(C)(C)c1[nH]c2cc(Br)ccc2c1CCNC` [DESFORMYLFLUSTRABROMINE] as the compound, how does the IC50 [1] read?
A: The IC50 was 44 µM.

Q: And the IC50 [2]?
A: Its IC50 is 150 µM.

Q: What about the Activity [3] of the same compound?
A: Its Activity is 295%.
